Experimental findings from publication PMC13006724 (Clinical Pharmacology in Drug Development, 2026) are described below.

For the data set the following is noted: human, in vivo, 400 mg. How it is done: Urine PK parameters included cumulative urinary excretion from time zero to time t (Ae0‐t), maximum rate of urinary excretion (Rmax), time of maximum rate of urinary excretion (TRmax), and renal clearance (Clr). PK analyses were performed using Phoenix WinNonlin version 8.0, which was validated by Syneos Health.

For `COc1c(N2C[C@@H]3CCCN[C@@H]3C2)c(F)cc2c(=O)c(C(=O)O)cn(C3CC3)c12` [Moxifloxacin], the AUC0-inf is 28327.2 (4616.5) h*ng/mL.
